Measured values: US20240294535A1, “IMIDAZOTRIAZINE THIOBENZAMIDE DERIVATIVE, AND PREPARATION METHOD AND APPLICATION THEREOF” (Yunbaiyao Zhengwu Science and Technology (Shanghai) Co., …, priority 2023, published 2024)

What was measured:
[1] = test system: MKN-45 cells; assay: Anti-proliferation activity, CTG, MKN-45 cells; type: cell-based; details: Homo sapiens; MKN-45 cells, 48 h, CTG
Procedure: (§1) Experimental objective: To evaluate the anti-proliferation activities of the compounds against MKN-45 cells, EBC-1 cells, Hs746T cells and Vero cells.
(§2) Experimental methods: Tumor cell lines were cultured and periodically passaged, and cells in logarithmic growth phase were taken for plate spreading. The cells were stained with Trypan blue, counted and adjusted to an appropriate density. 50 μL of cell suspension was added into each well of a culture plate, and 50 μL of nutrient solution without cells was added into a blank control well. The culture plate was precultured for 24 h in an incubator under the condition of 37° C., 5% CO2 and 100% relative humidity.
(§3) The DMSO stock solutions of the compounds 1-28 and Capmatinib were prepared, and diluted with Tecan D300e. Each compound was diluted to 7 concentration levels: 0.50 μM, 0.125 μM, 0.031 μM, 0.0078 μM, 0.0020 μM, 0.00049 μM, 0.00012 μM. The experiment was carried out in triplicate.
(§4) 50 μL of the solution was added into each designated well, and the culture plate was incubated for 48 h. 50 μL of CTG working solution was added to each well. The culture plate was wrapped with aluminum foil to avoid light and shaken in the shaker for 2 min to induce cell lysis. The culture plate was placed at room temperature for 10 min to stabilize light-emitting signal which was detected with a 2014 EnVision plate reader. Experimental data was processed by GraphPad Prism 7 to calculate IC50.

[2] = test system: EBC-1 cells; assay: Anti-proliferation activity, CTG, EBC-1 cells; type: cell-based, human; details: Homo sapiens; EBC-1 cells, 48 h, CTG
Procedure: as §1, §2, §3, §4

[3] = test system: Hs746T cells; assay: Anti-proliferation activity, CTG, Hs746T cells; type: cell-based; details: Homo sapiens; Hs746T cells, 48 h, CTG
Procedure: as §1, §2, §3, §4

[4] = test system: Vero cells; assay: Anti-proliferation activity, CTG, Vero cells; type: cell-based; details: Chlorocebus sabaeus; Vero cells, 48 h, CTG
Procedure: as §1, §2, §3, §4

[5] = test system: human EBC-1 cell subcutaneous xenograft model; assay: In vivo anti-tumor assessment in EBC-1 cell xenograft tumor mouse model; parameters: species or system mice; details: 10 mg/kg P.O. QD × 15 days; for inhibition of growth of the tumor in mice (tumor volume change): FIG. 2
Procedure: Experimental objective: To investigate in vivo efficacy of representative compounds on human lung squamous carcinoma cell (human EBC-1 cell) subcutaneous xenograft model.
Experimental methods: The EBC-1 cell xenograft tumor mouse model was used, according to the diameters of tumor, the tumor volume (TV), relative tumor volume (RTV), relative tumor proliferation rate (T/C (%)) and tumor growth inhibition value (TGI (%)) were calculated.
TGI (%) or T/C (%) of the compounds was evaluated. TGI (%) reflects a tumor growth inhibitory rate. TGI (%) was calculated as follows: TGI (%)=[1−(average tumor volume at the end of administration in a treatment group-average tumor volume at the beginning of administration in the treatment group)/(average tumor volume at the end in a solvent control group-average tumor volume at the beginning in the solvent control group)]×100%.
T/C (%) was calculated as follows: T/C (%)=TRTV/CRTV×100%; where TRTV is treatment RTV, and CRTV is negative control RTV. According to the measurement results of the tumor, RTV was calculated, and the calculating formula for RTV is as follows: RTV=Vt/V0; where V0 is the average tumor volume measured on the day of first administration; and Vt is the average tumor volume measured on a specified day. TRTV and CRTV were measured on the same day.

[6] = in vivo; details: both, Kunming, mouse, po
[7] = target: c-MET (Homo sapiens (Human), UniProt P08581); assay: c-MET kinase inhibitory activity (ELISA, poly(Glu,Tyr) substrate); type: biochemical; details: ATP 4 μM, 37° C. 1 h; read-out: c-MET kinase inhibitory enzymatic activity IC50
c-MET, sequence (P08581 25-1390): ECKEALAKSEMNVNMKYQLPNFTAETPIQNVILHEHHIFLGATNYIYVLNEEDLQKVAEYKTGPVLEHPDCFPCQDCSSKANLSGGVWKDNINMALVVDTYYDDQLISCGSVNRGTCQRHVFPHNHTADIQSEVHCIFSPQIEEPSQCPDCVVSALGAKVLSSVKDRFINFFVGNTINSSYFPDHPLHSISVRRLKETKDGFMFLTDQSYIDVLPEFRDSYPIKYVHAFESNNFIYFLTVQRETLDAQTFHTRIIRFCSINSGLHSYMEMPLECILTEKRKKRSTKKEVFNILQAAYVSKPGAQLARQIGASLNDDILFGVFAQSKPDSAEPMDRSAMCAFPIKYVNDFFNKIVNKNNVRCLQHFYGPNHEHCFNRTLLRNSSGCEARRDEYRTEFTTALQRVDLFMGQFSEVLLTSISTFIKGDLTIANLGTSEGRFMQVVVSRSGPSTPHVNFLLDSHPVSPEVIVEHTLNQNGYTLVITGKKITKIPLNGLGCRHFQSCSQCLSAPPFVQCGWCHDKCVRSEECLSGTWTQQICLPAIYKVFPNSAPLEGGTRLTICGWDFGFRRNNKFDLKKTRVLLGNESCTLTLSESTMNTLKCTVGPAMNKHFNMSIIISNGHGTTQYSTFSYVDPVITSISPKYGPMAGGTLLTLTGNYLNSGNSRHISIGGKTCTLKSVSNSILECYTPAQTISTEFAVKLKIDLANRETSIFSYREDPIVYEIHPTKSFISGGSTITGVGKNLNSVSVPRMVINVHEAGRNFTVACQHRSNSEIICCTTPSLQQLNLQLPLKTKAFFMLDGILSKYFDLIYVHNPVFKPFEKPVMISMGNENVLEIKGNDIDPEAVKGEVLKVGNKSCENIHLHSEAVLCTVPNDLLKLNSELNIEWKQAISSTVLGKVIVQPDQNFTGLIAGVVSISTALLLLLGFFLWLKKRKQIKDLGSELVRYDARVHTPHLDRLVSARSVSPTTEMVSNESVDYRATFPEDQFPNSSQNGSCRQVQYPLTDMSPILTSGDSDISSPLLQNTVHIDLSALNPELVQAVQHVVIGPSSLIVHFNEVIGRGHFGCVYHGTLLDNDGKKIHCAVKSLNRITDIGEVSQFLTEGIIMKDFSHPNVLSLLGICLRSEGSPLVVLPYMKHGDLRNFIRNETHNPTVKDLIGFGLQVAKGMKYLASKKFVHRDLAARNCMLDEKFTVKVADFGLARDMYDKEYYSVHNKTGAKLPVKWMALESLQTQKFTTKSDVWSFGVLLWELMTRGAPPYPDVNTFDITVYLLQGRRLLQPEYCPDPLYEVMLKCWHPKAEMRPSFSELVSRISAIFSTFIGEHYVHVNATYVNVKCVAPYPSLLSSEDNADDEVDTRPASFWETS

SMILES | IC50 [1] [nM] | IC50 [2] [nM] | IC50 [3] [nM] | IC50 [4] [nM] | T/C(%) [5] [%] | TGI(%) [5] [%] | Tumor Volume (Day 15) [5] [mm^3] | changes in body weight of the mice ([5]; end of the experiment, FIG. 1) | inhibition of growth of the tumor in mice (tumor volume change) ([5]; end of the experiment) | LD50 [6] [mg/kg] | IC50 [7] [nM]
CNC(=O)c1ccc(-c2cnc3ncc(Cc4ccc5ncccc5c4)n3n2)cc1F [Capmatinib, reference compound] | 5.7 | 3.9 | 4.5 | 68 | 24.97 | 91.23 | 225 ± 25 | greater losses in body weight compared to those in the other groups | could effectively inhibit the growth of the tumor in mice | 164 | 
CNC(=S)c1ccc(-c2cnc3ncc(Cc4ccc5nccnc5c4)n3n2)cc1F [Compound 17] | 1.2 | 1.6 | 1.2 | 123 | 20.42 | 96.76 | 184 ± 27 |  | better inhibitory effects | 318 | 0.0016
